Values of other authors as cited in article PMC11187573, “Identification of SARS-CoV-2 Mpro inhibitors through deep reinforcement learning for de novo drug design and computational chemistry approaches” (RSC Medicinal Chemistry, 2024).

Tested on: SARS, SARS-CoV-2 and MERS Mpro
Details: Origin COVID_Moonshot; ref COVID Moonshot; cited from earlier work

Row | SMILES | IC50 [nM]
1 | CC(C)C[C@@H]1CN(C(=O)CCl)CCN1Cc1cccc(Cl)c1 [DAN-LON-a5fc619e-3, CC(C)C[C@H](C1)N(Cc2cccc(Cl)c2)CCN1C(CCl)=O] | 784
2 | O=C(CCl)N1CC2CC1CN2Cc1cccc(Cl)c1 (centres unmarked) [DAN-LON-a5fc619e-8, O=C(CCl)N1C(C2)CN(Cc3cccc(Cl)c3)C2C1] | 2170
3 | CCNc1ncc(C#N)cc1CN1CCN(C(=O)CCl)CC1 [DAR-DIA-fb20be43-4, CCNc(nc1)c(CN(CC2)CCN2C(CCl)=O)cc1C#N] | 3220
4 | N#Cc1cc(CN2CCN(C(=O)CCl)CC2)c2ccccc2c1 [DAR-DIA-fb20be43-6, N#Cc1cc2ccccc2c(CN(CC2)CCN2C(CCl)=O)c1] | 4610
5 | COc1cc(CN2CCN(C(=O)CCl)CC2)c2ccccc2c1 [DAR-DIA-fb20be43-7, COc1cc2ccccc2c(CN(CC2)CCN2C(CCl)=O)c1] | 2750
6 | CC(NC(=O)CCl)c1cc(Cl)cc(-c2ccc(S(N)(=O)=O)cc2)c1 (centres unmarked) [DAV-CRI-14a23e73-1, CC(c1cc(Cl)cc(-c(cc2)ccc2S(N)(=O)=O)c1)NC(CCl)=O] | 466
7 | O=C(Nc1cccnc1)N(CCC1CCCCC1)c1cccc(Cl)c1 [JOR-UNI-2fc98d0b-12, O=C(Nc1cnccc1)N(CCC1CCCCC1)c1cccc(Cl)c1] | 3060
8 | O=C(NCc1ccc2c(c1)OCO2)c1nc(S(=O)(=O)Cc2ccccc2)ncc1Cl [LON-WEI-4d77710c-10, O=C(c(nc(nc1)S(Cc2ccccc2)(=O)=O)c1Cl)NCc(cc1)cc2c1OCO2] | 1400
9 | O=S(=O)(Nc1ccccc1SCc1cccc(Cl)c1F)c1cc(Cl)sc1Cl [LON-WEI-4d77710c-64, O=S(c(cc(s1)Cl)c1Cl)(Nc(cccc1)c1SCc1cccc(Cl)c1F)=O] | 2230
10 | O=[N+]([O-])c1cnc(Sc2nnc(-c3ccc(Cl)cc3)o2)s1 [LON-WEI-4d77710c-67, [O-][N+](c1cnc(Sc2nnc(-c(cc3)ccc3Cl)o2)s1)=O] | 881
11 | CCOC(=O)c1ccc(NC(=O)CC2SC(=O)N(c3ccccc3)C2=O)cc1 (centres unmarked) [LON-WEI-4d77710c-74, CCOC(c(cc1)ccc1NC(CC(C(N1c2ccccc2)=O)SC1=O)=O)=O] | 2400
12 | Cc1ccccc1NC(=O)CC1SC(=O)N(c2ccccc2)C1=O (centres unmarked) [LON-WEI-4d77710c-75, Cc(cccc1)c1NC(CC(C(N1c2ccccc2)=O)SC1=O)=O] | 443
13 | O=C(CCl)N1CCN(S(=O)(=O)c2c(F)cccc2F)CC1 [LON-WEI-8f408cad-2, O=C(CCl)N(CC1)CCN1S(c(c(F)ccc1)c1F)(=O)=O] | 3280
14 | O=C(CCl)N1CCN(S(=O)(=O)c2cccs2)CC1 [LON-WEI-8f408cad-3, O=C(CCl)N(CC1)CCN1S(c1cccs1)(=O)=O] | 2160
15 | O=C(CCl)N1CCN(Cc2ccsc2)CC1 [LON-WEI-8f408cad-7, O=C(CCl)N1CCN(Cc2cscc2)CC1] | 3500
16 | C=CC(=O)N(c1ccc(C(C)(C)C)cc1)C(C(=O)NCCc1cccc(F)c1)c1cccnc1 (centres unmarked) [LON-WEI-adc59df6-47, CC(C)(C)c(cc1)ccc1N(C(C(NCCc1cccc(F)c1)=O)c1cnccc1)C(C=C)=O] | 2960
17 | CS(=O)(=O)c1ncc(Cl)c(C(=O)Nc2ccccc2Cc2ccccc2)n1 [LON-WEI-ff7b210a-4, CS(c(nc1)nc(C(Nc2c(Cc3ccccc3)cccc2)=O)c1Cl)(=O)=O] | 503
18 | CCOC(=O)c1nc(S(C)(=O)=O)ncc1Cl [LON-WEI-ff7b210a-5, CCOC(c(nc(nc1)S(C)(=O)=O)c1Cl)=O] | 1600
19 | O=C(CCl)N1CCN(S(=O)(=O)C2=CC[SH]=C2)CC1 [MAK-UNK-d4768348-1, O=C(CCl)N(CC1)CCN1S(C1=CCS=C1)(=O)=O] | 1630
20 | COc1ccc(C2CC(c3cccs3)=NN2C(=O)CCl)cc1OC (centres unmarked) [MAT-POS-916a2c5a-1, COc(ccc(C(C1)N(C(CCl)=O)N=C1c1cccs1)c1)c1OC] | 1870
21 | O=C(CCl)N1CCN(Cc2cccc(Cl)c2)CC1 [MED-COV-4280ac29-15, O=C(CCl)N1CCN(Cc2cccc(Cl)c2)CC1] | 2840
22 | COc1ccc(C2CC(c3ccccc3)=NN2C(=O)CCl)cc1OC (centres unmarked) [MED-COV-4280ac29-30, COc(ccc(C(C1)N(C(CCl)=O)N=C1c1ccccc1)c1)c1OC] | 543
23 | COCc1cc(Cl)cc(CN2CCN(C(=O)CCl)CC2)c1 [MED-COV-4280ac29-33, COCc1cc(CN(CC2)CCN2C(CCl)=O)cc(Cl)c1] | 4770
24 | COCCc1ccc(Cl)cc1CN1CCN(C(=O)CCl)CC1 [MED-COV-4280ac29-37, COCCc(cc1)c(CN(CC2)CCN2C(CCl)=O)cc1Cl] | 2200
25 | NS(=O)(=O)CCc1ccccc1CN1CCN(C(=O)CCl)CC1 [MIH-UNI-e573136b-5, NS(CCc1c(CN(CC2)CCN2C(CCl)=O)cccc1)(=O)=O] | 2720
26 | COc1ccc2c(c1)CN(C(=O)CCl)C(c1ccccc1)C2 (centres unmarked) [NAU-LAT-64f4b287-4, COc1cc(CN(C(C2)c3ccccc3)C(CCl)=O)c2cc1] | 3740
27 | Cc1cc(Cl)cc(CC2CCN(C(=O)CCl)CC2)c1 [NIR-THE-0d6461ce-8, Cc1cc(Cl)cc(CC(CC2)CCN2C(CCl)=O)c1] | 3570
28 | N#Cc1cccc(C2CN(C(=O)CCl)Cc3ccccc32)c1 (centres unmarked) [NIR-THE-c331be7a-2, N#Cc1cccc(C(CN(C2)C(CCl)=O)c3c2cccc3)c1] | 1170

Same assay, conditions: Origin ChEMBL; ref ChEMBL; cited from earlier work

Row | SMILES | IC50 [nM]
29 | CN(C)CCNc1nc2cc(O)ccc2c2c1C(=O)c1ccccc1-2 [CHEMBL488755, CN(C)CCNc1nc2cc(O)ccc2c(-c2c3cccc2)c1C3=O] | 2990
30 | O=[N+]([O-])c1ccc(Sc2cccc[n+]2[O-])c2nonc12 [CHEMBL505670, [O-][N+](c(c1nonc11)ccc1Sc(cccc1)[n+]1[O-])=O] | 100
31 | O=[N+]([O-])c1cnc(Sc2nnc(O)n2-c2ccc3c(c2)OCCO3)s1 [CHEMBL508280, [O-][N+](c1cnc(Sc(n2-c(cc3)cc4c3OCCO4)nnc2O)s1)=O] | 2050
32 | Nc1nnc(Sc2ncc([N+](=O)[O-])s2)s1 [CHEMBL510038, Nc1nnc(Sc2ncc([N+]([O-])=O)s2)s1] | 30
33 | CCOC(=O)c1c(N)sc(-c2ccccc2)c1C [CHEMBL566136, CCOC(c1c(N)sc(-c2ccccc2)c1C)=O] | 3190
34 | CC(C)N(CCC(=O)c1ccc2ccccc2c1)Cc1ccccc1 [CHEMBL596674, CC(C)N(CCC(c1cc2ccccc2cc1)=O)Cc1ccccc1] | 580
35 | O=C(O)c1ccc(SSc2ccc(C(=O)O)cn2)nc1 [CHEMBL1161936, OC(c(cc1)cnc1SSc(cc1)ncc1C(O)=O)=O] | 240
36 | COCCCOc1ccnc(C[S+]([O-])c2nc3ccccc3[nH]2)c1C (centres unmarked) [CHEMBL1200930, Cc(c(C[S+](c1nc(cccc2)c2[n-]1)[O-])ncc1)c1OCCCOC] | 740
37 | C[C@@](Cc1ccc(O)c(O)c1)(NN)C(=O)O [CHEMBL1201236, C[C@](Cc(cc1)cc(O)c1O)(C(O)=O)NN] | 3550
38 | Oc1cc2c(cc1O)[C@H]1c3ccccc3CN[C@@H]1CC2 [CHEMBL1256832, Oc(cc(CC[C@H]([C@@H]12)NCc3c2cccc3)c1c1)c1O] | 1050
39 | O=C1C(Cl)=C(N2CCOCC2)C(=O)N1c1ccc(Cl)c(Cl)c1 [CHEMBL1271993, O=C(C(N1CCOCC1)=C(C1=O)Cl)N1c(cc1)cc(Cl)c1Cl] | 2840
40 | CCC(=O)OCN1C(=O)C=CC1=O [CHEMBL1374426, CCC(OCN(C(C=C1)=O)C1=O)=O] | 290
41 | CCOc1cc(C(Nc2cc(C)ccn2)c2ccc3cccnc3c2O)ccc1OC (centres unmarked) [CHEMBL1397952, CCOc(cc(C(c(ccc1cccnc11)c1O)Nc1nccc(C)c1)cc1)c1OC] | 270
42 | CCN1CCN(C(c2ccc(C(F)(F)F)cc2)c2ccc3cccnc3c2O)CC1 (centres unmarked) [CHEMBL1422849, CCN(CC1)CCN1C(c1ccc(C(F)(F)F)cc1)c(ccc1cccnc11)c1O] | 150
43 | O=C1C=CC(=O)C2=C1C1c3ccccc3C2c2ccccc21 [CHEMBL1474701, O=C(C=C1)C(C(c2c(C34)cccc2)c2c4cccc2)=C3C1=O] | 240
44 | COc1ccc2[nH]c([S+]([O-])Cc3ncc(C)c(OC)c3C)nc2n1 (centres unmarked) [CHEMBL1475252, Cc1cnc(C[S+](c2nc(nc(cc3)OC)c3[nH]2)[O-])c(C)c1OC] | 970
45 | O=C(c1ccc(/C=C/c2n[nH]c3ccccc23)cc1)N1CCNCC1 [CHEMBL1908397, O=C(c1ccc(/C=C/c2n[nH]c3c2cccc3)cc1)N1CCNCC1] | 3600
46 | COc1cccc(C(=O)CCN[C@@H](C)[C@H](O)c2ccccc2)c1 [CHEMBL2354521, C[C@@H]([C@@H](c1ccccc1)O)NCCC(c1cc(OC)ccc1)=O] | 2350
47 | O=C1c2c(O)cc(O)cc2O[C@H](c2cc(O)c(O)c(O)c2)[C@H]1O [CHEMBL3348861, O[C@H]([C@@H](c(cc1O)cc(O)c1O)Oc1c2c(O)cc(O)c1)C2=O] | 180
48 | Oc1cc2c(cc1C(c1ccc(C(F)(F)F)cc1)N1CCOCC1)OCO2 (centres unmarked) [CHEMBL3797437, Oc1c(C(c2ccc(C(F)(F)F)cc2)N2CCOCC2)cc2OCOc2c1] | 540
49 | CC=C1C(OC2OC(CO)C(O)C(O)C2O)OC=C(C(=O)OC)C1CC(=O)OCCc1ccc(O)c(O)c1 (centres unmarked) [CHEMBL4303154, CC=C(C1CC(OCCc(cc2)cc(O)c2O)=O)C(OC(C(C2O)O)OC(CO)C2O)OC=C1C(OC)=O] | 3380
50 | C[C@@H]1O[C@@H](Oc2c(-c3cc(O)c(O)c(O)c3)oc3cc(O)cc(O)c3c2=O)[C@@H](O)[C@H](O)[C@H]1O [CHEMBL4303331, C[C@@H]([C@@H]([C@H]([C@@H]1O)O)O)O[C@H]1OC1=C(c(cc2O)cc(O)c2O)Oc(cc(cc2O)O)c2C1=O] | 3660
51 | Oc1cc(CNC(=S)/C=C/c2cc(O)c(O)c(Br)c2)cc(O)c1O [CHEMBL4303361, Oc1cc(CNC(/C=C/c(cc2O)cc(Br)c2O)=S)cc(O)c1O] | 480
52 | Cc1ccccc1N(C)C(=O)c1ccc([S+]([O-])c2nccs2)c([N+](=O)[O-])c1 (centres unmarked) [CHEMBL4303376, Cc(cccc1)c1N(C)C(c(cc1)cc([N+]([O-])=O)c1[S+](c1nccs1)[O-])=O] | 1870
53 | C=C1C(=O)[C@]23[C@H](O)[C@H]1CC[C@@H]2[C@]12CO[C@]3(O)C[C@@H]1C(C)(C)CC[C@@H]2O [CHEMBL4303503, CC(C)(CC1)[C@@H](C[C@@]([C@@]([C@@H]2O)([C@@H]3CC[C@H]2C2=C)C2=O)(O)OC2)[C@@]23[C@H]1O] | 2570
54 | O=C1C=Cc2cc(Br)ccc2C1=O [CHEMBL4303595, O=C(C=Cc1c2ccc(Br)c1)C2=O] | 100
55 | CCc1ccc(/C=C/C(=O)Nc2ccc(C(C)=O)cc2)o1 [CHEMBL4303618, CCc1ccc(/C=C/C(Nc(cc2)ccc2C(C)=O)=O)o1] | 4950
56 | N#CSc1cc(SC#N)c(N)nc1N [CHEMBL4303622, Nc(c(SC#N)c1)nc(N)c1SC#N] | 1360
